In publication PMC12518996 (Frontiers in Pharmacology, 2025):

Key:
Assay type in all cases: in vitro ADME
[1] = molecular target: T1, FMO1 (Homo sapiens, UniProt Q01740); test: Metabolite formation by recombinant human FMO1; details: trazodone 4 μM; 37 °C, 40 min
T1 sequence (Q01740 1-532): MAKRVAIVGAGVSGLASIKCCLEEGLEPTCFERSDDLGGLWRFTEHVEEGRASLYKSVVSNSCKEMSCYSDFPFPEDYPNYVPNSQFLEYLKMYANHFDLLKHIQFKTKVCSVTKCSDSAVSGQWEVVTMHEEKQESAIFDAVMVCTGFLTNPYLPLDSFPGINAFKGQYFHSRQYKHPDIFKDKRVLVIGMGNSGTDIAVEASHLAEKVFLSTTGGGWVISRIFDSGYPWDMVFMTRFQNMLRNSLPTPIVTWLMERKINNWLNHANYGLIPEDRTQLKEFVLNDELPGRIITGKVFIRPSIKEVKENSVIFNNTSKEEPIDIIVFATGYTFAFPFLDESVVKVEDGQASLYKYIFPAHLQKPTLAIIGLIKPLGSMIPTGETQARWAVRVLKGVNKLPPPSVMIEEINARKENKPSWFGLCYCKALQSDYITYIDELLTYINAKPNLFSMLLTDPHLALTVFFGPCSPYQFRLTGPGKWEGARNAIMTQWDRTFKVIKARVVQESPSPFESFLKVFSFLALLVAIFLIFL

[2] = molecular target: T2, CYP2A6 (Homo sapiens, UniProt P11509); test: Metabolite formation by recombinant human CYP2A6; details: trazodone 4 μM; NADPH; 37 °C, 40 min
T2 sequence (P11509 1-494): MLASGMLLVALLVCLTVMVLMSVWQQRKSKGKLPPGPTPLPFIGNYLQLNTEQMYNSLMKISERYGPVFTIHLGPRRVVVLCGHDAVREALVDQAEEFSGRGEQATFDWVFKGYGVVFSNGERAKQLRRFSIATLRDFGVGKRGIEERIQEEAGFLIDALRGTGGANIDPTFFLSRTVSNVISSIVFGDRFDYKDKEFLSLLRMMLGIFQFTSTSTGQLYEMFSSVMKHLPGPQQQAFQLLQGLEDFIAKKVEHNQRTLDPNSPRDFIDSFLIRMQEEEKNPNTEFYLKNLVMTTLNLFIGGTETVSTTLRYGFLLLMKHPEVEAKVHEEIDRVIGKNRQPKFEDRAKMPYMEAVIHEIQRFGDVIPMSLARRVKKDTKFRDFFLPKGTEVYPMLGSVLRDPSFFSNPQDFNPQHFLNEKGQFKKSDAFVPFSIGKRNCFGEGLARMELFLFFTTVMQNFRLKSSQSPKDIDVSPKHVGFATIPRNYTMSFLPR
Experimental: (§1) To confirm the role of individual CYP isoforms in metabolizing trazodone, recombinant human and rat CYP enzymes were employed in separate incubations. […] Each reaction was terminated with acetonitrile, centrifuged, and the supernatant was analyzed by identical UHPLC-Orbitrap setup outlined in §2.2, allowing direct comparison of metabolite spectra across all in-vitro systems. […] This procedure helped confirm the contributions of individual isoforms to specific biotransformation reactions.

[3] = molecular target: CYP2C9 (Homo sapiens, UniProt P11712); test: Metabolite formation by recombinant human CYP2C9; details: trazodone 4 μM; NADPH; 37 °C, 40 min
CYP2C9, sequence (P11712 whole entry): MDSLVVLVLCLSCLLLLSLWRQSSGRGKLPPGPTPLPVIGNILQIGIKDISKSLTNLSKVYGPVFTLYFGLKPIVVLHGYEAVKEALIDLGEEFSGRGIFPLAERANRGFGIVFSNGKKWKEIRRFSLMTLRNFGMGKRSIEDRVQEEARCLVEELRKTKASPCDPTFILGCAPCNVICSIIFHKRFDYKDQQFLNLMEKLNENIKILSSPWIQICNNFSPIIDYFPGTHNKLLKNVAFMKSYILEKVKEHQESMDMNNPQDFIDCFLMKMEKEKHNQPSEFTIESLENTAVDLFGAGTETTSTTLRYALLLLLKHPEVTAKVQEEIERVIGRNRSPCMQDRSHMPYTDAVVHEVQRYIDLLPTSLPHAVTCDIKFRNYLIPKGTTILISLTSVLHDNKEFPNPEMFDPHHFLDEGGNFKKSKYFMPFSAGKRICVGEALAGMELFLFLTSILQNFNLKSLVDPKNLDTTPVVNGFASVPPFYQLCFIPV
Experimental: (§2) Each reaction was terminated with acetonitrile, centrifuged, and the supernatant was analyzed by identical UHPLC-Orbitrap setup outlined in §2.2, allowing direct comparison of metabolite spectra across all in-vitro systems.

[4] = molecular target: CYP3A4 (Homo sapiens, UniProt P08684); test: Metabolite formation by recombinant human CYP3A4; details: trazodone 4 μM; NADPH; 37 °C, 40 min
CYP3A4, sequence (P08684 whole entry): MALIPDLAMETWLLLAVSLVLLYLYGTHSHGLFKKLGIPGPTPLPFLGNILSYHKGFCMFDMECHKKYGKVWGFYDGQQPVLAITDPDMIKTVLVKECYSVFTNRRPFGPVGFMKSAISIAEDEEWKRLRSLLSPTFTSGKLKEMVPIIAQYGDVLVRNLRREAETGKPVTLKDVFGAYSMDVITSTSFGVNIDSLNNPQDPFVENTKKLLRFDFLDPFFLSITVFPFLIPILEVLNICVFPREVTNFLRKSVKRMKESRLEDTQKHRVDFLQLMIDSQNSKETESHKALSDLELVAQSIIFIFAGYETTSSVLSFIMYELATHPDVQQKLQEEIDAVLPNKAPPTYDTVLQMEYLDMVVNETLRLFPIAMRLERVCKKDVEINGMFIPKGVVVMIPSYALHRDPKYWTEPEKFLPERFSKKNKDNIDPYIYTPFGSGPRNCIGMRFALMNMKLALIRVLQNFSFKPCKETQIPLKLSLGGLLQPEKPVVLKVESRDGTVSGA
Experimental: as §2

[5] = molecular target: T3, CYP2D4 (Rattus norvegicus, UniProt Q64680); test: Metabolite formation by recombinant rat CYP2D4; details: trazodone 4 μM; NADPH; 37 °C, 40 min
T3 sequence (Q64680 1-500): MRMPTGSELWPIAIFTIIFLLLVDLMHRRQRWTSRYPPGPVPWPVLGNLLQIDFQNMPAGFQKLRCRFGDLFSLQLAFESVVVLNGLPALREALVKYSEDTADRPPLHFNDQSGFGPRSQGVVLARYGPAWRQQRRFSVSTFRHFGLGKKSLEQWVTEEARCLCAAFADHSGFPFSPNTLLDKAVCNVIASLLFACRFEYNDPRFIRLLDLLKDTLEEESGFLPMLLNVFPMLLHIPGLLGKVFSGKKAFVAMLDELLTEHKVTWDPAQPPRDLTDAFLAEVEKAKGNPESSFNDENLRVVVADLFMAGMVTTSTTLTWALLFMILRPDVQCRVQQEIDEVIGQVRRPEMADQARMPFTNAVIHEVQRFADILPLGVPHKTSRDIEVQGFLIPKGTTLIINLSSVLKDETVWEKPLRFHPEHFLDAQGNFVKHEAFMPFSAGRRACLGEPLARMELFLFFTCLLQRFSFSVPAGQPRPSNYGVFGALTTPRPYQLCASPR
Experimental: as §1

[6] = molecular target: T4, CYP3A9 (Rattus norvegicus, UniProt P51538); test: Metabolite formation by recombinant rat CYP3A9; details: trazodone 4 μM; NADPH; 37 °C, 40 min
T4 sequence (P51538 1-503): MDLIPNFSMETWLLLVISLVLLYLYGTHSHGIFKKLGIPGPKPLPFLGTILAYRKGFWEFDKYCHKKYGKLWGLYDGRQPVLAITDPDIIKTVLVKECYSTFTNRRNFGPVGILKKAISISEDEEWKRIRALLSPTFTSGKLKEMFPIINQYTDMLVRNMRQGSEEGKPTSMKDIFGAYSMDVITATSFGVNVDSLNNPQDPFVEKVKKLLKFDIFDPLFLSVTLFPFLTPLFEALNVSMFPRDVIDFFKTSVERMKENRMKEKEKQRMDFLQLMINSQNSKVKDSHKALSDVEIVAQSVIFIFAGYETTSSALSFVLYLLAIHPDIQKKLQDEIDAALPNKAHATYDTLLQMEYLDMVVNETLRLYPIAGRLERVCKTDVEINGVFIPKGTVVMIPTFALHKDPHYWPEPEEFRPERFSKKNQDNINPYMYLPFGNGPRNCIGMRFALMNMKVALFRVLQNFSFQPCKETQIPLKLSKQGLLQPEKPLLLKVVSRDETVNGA
Experimental: as §2

| Structure (SMILES) | Formation of trazodone phase I metabolite by recombinant human FMO1 (as LC/MS peak areas) [1] | Formation of trazodone phase I metabolite by recombinant human CYP2A6 (as LC/MS peak areas) [2] | Formation of trazodone phase I metabolite by recombinant human CYP2C9 (as LC/MS peak areas) [3] | Formation of trazodone phase I metabolite by recombinant human CYP3A4 (as LC/MS peak areas) [4] | Formation of trazodone phase I metabolite by recombinant rat CYP2D4 (as LC/MS peak areas) [5] | Formation of trazodone phase I metabolite by recombinant rat CYP3A9 (as LC/MS peak areas) [6] |
| --- | --- | --- | --- | --- | --- | --- |
| O=c1n(CCCN2CCNCC2)nc2ccccn12 [Metabolite M15] | 0 | 0 | 0 | 6716 | 184 | 719 |
| O=c1n(CCCO)nc2ccccn12 [Metabolite M20] | 0 | 0 | 0 | 236 | 538 | 1080 |
| Clc1cccc(N2CCNCC2)c1 [mCPP, m-chlorophenylpiperazine] | 6 | 8 | 40 | 32991 | 3166 | 18577 |
